In ChEMBL document CHEMBL5696442, “Discovery of type II inhibitors of TGFβ-activated kinase 1 (TAK1) and mitogen-activated protein kinase kinase kinase kinase 2 (MAP4K2)” (J Med Chem, 2015) one finds inhibition and residual activity data, which are given here for 3 compounds.

The target of assay [1] is Mitogen-activated protein kinase kinase kinase 4 (Homo sapiens) (UniProt Q9Y6R4). The experiment in a line: Inhibition of MAP3K4 Lys1 labeling site in human Huh-7 cell lysate at 1 uM by KiNativ Profiling analysis relative to control. It counts as subcellular.
Chain of Mitogen-activated protein kinase kinase kinase 4 (Homo sapiens) (Q9Y6R4 whole entry): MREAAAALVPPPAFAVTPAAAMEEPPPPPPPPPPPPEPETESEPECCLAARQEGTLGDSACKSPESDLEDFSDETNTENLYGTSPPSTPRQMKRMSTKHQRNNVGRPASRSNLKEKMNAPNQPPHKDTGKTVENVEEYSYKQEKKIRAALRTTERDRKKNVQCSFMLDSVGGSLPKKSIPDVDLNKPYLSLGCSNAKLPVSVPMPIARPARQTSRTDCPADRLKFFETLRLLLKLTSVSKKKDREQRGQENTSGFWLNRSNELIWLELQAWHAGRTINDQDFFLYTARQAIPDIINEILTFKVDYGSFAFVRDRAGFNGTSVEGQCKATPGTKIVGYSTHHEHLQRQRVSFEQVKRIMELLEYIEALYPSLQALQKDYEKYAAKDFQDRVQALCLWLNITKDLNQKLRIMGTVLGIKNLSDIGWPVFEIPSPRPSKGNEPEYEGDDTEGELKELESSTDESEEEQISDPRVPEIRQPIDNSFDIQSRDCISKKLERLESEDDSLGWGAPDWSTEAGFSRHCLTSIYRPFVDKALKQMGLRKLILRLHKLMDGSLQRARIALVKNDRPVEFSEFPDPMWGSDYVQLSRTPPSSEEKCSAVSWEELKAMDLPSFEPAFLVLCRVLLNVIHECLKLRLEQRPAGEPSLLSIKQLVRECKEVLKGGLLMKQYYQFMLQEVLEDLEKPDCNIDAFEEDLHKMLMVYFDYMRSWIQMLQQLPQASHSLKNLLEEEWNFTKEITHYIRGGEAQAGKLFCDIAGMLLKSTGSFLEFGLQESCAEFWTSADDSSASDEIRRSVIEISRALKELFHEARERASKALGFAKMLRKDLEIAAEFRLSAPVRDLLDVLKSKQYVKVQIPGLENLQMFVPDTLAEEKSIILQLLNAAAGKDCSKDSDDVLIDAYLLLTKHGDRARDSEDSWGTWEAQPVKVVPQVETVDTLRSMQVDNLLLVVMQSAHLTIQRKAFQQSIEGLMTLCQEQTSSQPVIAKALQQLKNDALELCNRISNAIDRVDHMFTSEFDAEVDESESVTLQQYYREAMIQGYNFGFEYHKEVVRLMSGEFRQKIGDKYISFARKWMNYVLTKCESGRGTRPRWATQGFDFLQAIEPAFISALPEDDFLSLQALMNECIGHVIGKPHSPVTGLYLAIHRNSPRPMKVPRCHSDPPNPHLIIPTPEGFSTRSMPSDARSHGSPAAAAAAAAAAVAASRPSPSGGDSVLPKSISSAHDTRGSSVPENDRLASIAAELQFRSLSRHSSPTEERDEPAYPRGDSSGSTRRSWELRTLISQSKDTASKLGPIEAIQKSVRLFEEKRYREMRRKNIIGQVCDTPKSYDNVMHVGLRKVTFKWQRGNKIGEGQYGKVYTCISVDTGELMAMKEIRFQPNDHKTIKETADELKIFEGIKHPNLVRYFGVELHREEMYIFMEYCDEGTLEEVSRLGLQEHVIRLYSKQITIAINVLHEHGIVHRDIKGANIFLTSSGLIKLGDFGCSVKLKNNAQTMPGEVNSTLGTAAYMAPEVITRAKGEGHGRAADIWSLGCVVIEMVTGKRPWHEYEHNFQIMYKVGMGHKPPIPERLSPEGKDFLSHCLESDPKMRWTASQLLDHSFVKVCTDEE
For assay [2], the target named is 5'-AMP-activated protein kinase catalytic subunit alpha-1 (Homo sapiens) (UniProt Q13131). The experiment in a line: Inhibition of AMPKa1 Lys1 labeling site in human Huh-7 cell lysate at 1 uM by KiNativ Profiling analysis relative to control. It is filed as subcellular.
For assay [3], the target named is Serine/threonine-protein kinase MARK2 (Homo sapiens) (UniProt Q7KZI7). The experiment in a line: Inhibition of MARK2 Lys2 labeling site harbouring DLKAENLLLDADMNIK in human Huh-7 cells at 1 uM by KiNativ Profiling analysis relative to control. It is filed as cell-based.
The target of assay [4] is Serine/threonine-protein kinase 16 (Homo sapiens) (UniProt O75716). The experiment in a line: Inhibition of MPSK1 Lys2 labeling site in human Huh-7 cell lysate at 1 uM by KiNativ Profiling analysis relative to control. It counts as subcellular.
Chain of Serine/threonine-protein kinase 16 (Homo sapiens) (O75716 whole entry): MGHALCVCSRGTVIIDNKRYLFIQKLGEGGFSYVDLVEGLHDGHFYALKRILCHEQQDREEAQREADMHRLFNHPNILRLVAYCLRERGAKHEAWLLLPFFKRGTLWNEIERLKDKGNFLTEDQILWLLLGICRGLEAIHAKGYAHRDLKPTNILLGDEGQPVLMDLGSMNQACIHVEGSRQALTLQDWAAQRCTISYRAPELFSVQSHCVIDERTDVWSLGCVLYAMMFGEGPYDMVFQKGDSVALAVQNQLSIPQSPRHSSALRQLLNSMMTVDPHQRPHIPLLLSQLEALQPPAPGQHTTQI
The target of assay [5] is T1, PAN2-PAN3 deadenylation complex subunit PAN3 (Homo sapiens) (UniProt Q58A45).
T1 sequence (whole entry): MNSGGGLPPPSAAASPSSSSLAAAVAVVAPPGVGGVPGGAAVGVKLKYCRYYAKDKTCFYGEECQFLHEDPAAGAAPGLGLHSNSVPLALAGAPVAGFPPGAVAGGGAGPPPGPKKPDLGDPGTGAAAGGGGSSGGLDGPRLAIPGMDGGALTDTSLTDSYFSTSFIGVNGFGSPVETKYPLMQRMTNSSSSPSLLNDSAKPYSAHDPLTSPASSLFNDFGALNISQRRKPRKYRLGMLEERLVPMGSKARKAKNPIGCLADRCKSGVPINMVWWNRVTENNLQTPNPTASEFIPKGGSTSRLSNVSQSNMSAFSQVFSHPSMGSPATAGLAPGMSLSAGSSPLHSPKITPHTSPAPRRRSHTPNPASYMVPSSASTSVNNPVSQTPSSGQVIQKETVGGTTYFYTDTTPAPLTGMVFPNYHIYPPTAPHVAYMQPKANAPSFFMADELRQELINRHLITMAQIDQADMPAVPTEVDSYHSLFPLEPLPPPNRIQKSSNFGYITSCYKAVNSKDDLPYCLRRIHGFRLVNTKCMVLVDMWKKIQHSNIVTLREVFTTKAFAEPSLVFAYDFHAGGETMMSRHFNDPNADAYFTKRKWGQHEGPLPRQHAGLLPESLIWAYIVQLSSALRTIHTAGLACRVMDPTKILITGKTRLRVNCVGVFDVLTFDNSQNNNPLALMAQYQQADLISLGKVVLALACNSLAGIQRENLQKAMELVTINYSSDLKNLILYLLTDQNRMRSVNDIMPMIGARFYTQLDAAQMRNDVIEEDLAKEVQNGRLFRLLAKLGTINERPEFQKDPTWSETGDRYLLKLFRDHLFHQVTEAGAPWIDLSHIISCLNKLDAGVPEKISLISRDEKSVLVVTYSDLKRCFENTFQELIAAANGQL
Nature of the assay: Inhibition of PAN3 Protein Kinase Domain labeling site in human Huh-7 cell lysate at 1 uM by KiNativ Profiling analysis relative to control. It counts as subcellular.

Assay [6] deals with Serine/threonine-protein kinase BRSK1 (Homo sapiens) (UniProt Q8TDC3). Nature of the assay: Inhibition of BRSK1 (unknown origin) at 1 uM by Ambit Kinomescan binding assay relative to control; values are per cent of control.
Assay [7] deals with Glycogen synthase kinase-3 beta (Homo sapiens) (UniProt P49841). Nature of the assay: Inhibition of GSK3B Lys2 labeling site in human A-375 cells at 0.05 uM by KiNativ Profiling analysis relative to control. It counts as cell-based.
Assay [8] relates to Serine/threonine-protein kinase B-raf (Homo sapiens), P15056 [V600E]. Nature of the assay: Inhibition of BRAF V600E mutant (unknown origin) at 1 uM by Ambit Kinomescan binding assay relative to control.
The target of assay [9] is Serine/threonine-protein kinase 24 (Homo sapiens) (UniProt Q9Y6E0). Nature of the assay: Inhibition of MST3 ACT labeling site in human A-375 cells at 0.05 uM by KiNativ Profiling analysis relative to control. It is filed as cell-based.
Assay [10] addresses Calcium/calmodulin-dependent protein kinase type 1 (Homo sapiens) (UniProt Q14012). Nature of the assay: Inhibition of CAMK1 (unknown origin) at 10 uM by Ambit Kinomescan binding assay relative to control.
In assay [11] the target is Mitogen-activated protein kinase 10 (Homo sapiens, UniProt P53779). The experiment in a line: Inhibition of JNK3 (unknown origin) at 10 uM by Ambit Kinomescan binding assay relative to control.
Chain of Mitogen-activated protein kinase 10 (P53779 whole entry): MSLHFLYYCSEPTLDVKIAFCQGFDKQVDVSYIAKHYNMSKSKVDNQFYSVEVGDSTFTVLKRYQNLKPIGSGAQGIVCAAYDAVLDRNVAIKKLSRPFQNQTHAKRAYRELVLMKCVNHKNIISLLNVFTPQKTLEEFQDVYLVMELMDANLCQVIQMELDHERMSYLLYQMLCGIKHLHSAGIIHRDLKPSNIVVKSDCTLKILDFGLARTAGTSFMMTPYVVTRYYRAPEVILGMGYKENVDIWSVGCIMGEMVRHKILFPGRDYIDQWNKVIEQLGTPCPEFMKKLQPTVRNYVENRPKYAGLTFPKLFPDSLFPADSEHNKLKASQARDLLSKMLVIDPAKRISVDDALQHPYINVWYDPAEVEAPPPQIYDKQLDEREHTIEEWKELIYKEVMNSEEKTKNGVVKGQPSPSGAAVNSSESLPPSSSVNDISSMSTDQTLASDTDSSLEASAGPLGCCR
The target in assay [12] is Mitogen-activated protein kinase kinase kinase kinase 4 (Homo sapiens, UniProt O95819). Nature of the assay: Inhibition of MAP4K4 (unknown origin) at 10 uM by Ambit Kinomescan binding assay relative to control.
Chain of Mitogen-activated protein kinase kinase kinase kinase 4 (O95819 2-1239 limits assumed): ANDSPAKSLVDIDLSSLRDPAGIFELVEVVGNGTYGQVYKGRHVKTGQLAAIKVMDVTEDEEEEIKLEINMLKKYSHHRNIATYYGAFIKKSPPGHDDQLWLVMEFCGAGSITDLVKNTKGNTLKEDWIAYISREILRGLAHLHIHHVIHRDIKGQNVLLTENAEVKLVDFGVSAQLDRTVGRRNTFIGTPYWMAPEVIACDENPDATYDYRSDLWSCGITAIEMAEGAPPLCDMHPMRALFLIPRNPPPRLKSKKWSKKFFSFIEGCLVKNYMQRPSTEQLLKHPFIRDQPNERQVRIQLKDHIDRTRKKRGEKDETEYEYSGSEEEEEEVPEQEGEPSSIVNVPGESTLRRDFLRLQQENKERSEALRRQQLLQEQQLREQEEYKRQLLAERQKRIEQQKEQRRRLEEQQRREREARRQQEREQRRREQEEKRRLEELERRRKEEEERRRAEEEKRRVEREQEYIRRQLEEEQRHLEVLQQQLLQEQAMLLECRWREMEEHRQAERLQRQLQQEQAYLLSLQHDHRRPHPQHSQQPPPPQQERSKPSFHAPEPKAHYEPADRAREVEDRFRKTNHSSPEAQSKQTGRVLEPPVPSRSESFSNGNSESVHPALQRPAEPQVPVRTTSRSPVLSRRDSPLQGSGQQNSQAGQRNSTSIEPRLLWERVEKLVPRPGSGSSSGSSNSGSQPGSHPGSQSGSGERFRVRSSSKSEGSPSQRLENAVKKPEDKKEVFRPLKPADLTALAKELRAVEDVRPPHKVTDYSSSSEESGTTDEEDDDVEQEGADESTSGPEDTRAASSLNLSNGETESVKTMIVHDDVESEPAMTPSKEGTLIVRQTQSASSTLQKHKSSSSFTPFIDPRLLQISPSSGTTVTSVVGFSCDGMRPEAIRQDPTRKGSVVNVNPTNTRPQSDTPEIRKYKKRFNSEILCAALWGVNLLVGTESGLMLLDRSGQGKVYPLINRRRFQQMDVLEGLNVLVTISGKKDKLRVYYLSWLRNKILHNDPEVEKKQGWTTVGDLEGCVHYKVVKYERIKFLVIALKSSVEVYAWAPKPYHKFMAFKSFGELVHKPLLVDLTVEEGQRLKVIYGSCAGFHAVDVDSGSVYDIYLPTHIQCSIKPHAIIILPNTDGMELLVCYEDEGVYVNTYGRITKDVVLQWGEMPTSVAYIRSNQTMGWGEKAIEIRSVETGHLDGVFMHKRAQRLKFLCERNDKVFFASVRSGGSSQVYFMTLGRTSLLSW
Assay [13] concerns the target T2, Aurora kinase A (Homo sapiens) (UniProt O14965).
T2 sequence (whole entry): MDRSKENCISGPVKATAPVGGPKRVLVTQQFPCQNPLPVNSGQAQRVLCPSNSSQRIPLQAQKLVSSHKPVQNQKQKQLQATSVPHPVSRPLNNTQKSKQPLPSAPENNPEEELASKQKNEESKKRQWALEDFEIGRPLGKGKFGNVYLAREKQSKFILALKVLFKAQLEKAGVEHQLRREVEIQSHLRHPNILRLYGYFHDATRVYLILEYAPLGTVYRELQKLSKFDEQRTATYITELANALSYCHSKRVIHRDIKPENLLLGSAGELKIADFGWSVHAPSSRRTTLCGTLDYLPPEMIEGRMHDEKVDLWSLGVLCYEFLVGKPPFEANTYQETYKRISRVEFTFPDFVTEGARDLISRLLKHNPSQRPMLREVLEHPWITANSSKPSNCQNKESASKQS
The experiment in a line: Inhibition of AURKA (unknown origin) at 10 uM by Ambit Kinomescan binding assay.

The target of assay [14] is T3, Dual specificity mitogen-activated protein kinase kinase 3 (Homo sapiens) (UniProt P46734).
T3 sequence (whole entry): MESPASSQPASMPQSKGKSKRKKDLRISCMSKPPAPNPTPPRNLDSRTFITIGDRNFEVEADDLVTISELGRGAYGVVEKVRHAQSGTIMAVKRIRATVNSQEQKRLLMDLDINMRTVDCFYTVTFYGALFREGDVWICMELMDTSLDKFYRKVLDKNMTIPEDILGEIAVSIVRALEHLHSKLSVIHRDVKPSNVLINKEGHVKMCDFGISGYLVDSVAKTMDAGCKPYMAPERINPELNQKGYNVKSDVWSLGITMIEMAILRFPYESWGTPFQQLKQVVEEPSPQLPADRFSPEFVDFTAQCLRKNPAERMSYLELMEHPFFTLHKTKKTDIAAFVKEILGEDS
Nature of the assay: Inhibition of MEK3 (unknown origin) at 10 uM by Ambit Kinomescan binding assay.

Assay [15] concerns the target Ribosomal protein S6 kinase alpha-3 (Homo sapiens) (UniProt P51812). Nature of the assay: Inhibition of RSK2 Domain 2 K2 labeling site harbouring DLKPSNILYVDESGNPESIR in human Huh-7 cells at 1 uM by KiNativ Profiling analysis relative to control. It counts as cell-based.

The structures appear in SMILES notation. The source made the active and inactive calls. No cut-off for these calls is given here.

Chain of Calcium/calmodulin-dependent protein kinase type 1 (Homo sapiens) (Q14012 whole entry, looked up): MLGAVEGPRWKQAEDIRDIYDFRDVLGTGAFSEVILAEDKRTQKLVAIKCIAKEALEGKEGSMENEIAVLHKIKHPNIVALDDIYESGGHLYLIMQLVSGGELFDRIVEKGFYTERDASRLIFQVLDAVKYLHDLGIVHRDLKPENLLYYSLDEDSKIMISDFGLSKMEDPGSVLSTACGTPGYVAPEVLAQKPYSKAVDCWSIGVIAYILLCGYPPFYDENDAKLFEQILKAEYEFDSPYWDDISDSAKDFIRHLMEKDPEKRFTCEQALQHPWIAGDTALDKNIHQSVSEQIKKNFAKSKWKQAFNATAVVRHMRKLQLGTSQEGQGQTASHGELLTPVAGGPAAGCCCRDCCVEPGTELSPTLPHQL
Chain of Ribosomal protein S6 kinase alpha-3 (Homo sapiens) (P51812 whole entry, the tested form may be a part): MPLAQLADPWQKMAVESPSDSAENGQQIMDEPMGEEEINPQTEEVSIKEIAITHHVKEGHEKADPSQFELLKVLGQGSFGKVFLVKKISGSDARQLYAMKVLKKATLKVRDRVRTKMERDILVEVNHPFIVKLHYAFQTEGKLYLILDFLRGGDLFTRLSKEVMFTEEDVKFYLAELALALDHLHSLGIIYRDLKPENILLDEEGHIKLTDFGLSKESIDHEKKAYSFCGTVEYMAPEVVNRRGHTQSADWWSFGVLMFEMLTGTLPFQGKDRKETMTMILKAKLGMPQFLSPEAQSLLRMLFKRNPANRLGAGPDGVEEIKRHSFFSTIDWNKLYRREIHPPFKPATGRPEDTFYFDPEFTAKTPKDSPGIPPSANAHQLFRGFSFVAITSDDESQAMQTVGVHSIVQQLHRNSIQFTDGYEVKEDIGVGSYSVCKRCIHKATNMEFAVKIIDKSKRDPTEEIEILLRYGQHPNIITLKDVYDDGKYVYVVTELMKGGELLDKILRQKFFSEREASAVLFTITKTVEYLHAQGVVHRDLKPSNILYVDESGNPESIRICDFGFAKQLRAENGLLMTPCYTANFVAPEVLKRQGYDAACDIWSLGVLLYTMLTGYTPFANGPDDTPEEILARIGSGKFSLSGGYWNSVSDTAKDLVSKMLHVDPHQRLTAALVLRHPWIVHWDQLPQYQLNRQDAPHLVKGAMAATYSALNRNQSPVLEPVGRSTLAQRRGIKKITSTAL

In the case of `CNc1cc(Oc2cc(C(=O)Nc3cc(N4CCN(C)CC4)cc(C(F)(F)F)c3)ccc2C)ncn1`, the inhibition in [1] is -1.7%; in [2], 8.7%; in [3], 19.4%; in assay [4] it was 4.6%; in assay [5] it was -2.9%.

As for `CCN1CCN(Cc2ccc(NC(=O)c3ccc(C)c(/C=C/c4cnc5[nH]ccc5c4OC)c3)cc2C(F)(F)F)CC1`, in assay [6], the residual activity amounted to 83%. Besides, the values for the inhibition in [7], in assay [8] and in assay [9] were 29.8%, 7.4% and 13.5%, respectively.

As to `CCN1CCN(Cc2ccc(NC(=O)c3ccc(C)c(Oc4ccnc5[nH]ccc45)c3)cc2C(F)(F)F)CC1`, the inhibition in assay [10] stood at 0%; in [11], 12%; in [12], 0%; in assay [15], 11.5%. Also, the inhibition entry in assay [13] and in [14] was “inactive” throughout.
